According to patent publication US6458816B1, “Modified prodrug forms of AP/AMP” (Vion Pharmaceuticals, Inc., priority 2000, dated 2002):

How the values were obtained:
[1] = test system: M109 murine lung carinoma; assay: Activity in the M109 Lung Carcinoma Model; format: in vivo, Balb/c mice; settings: for Relative Activity: CTX=Cytoxan
From the text: Twelve (12) 3-AP prodrugs have been evaluated for efficacy and toxicity using the M109 murine lung carinoma model in Balb/c mice. The procedure of the experiment is as follows: eight week aged female Balb/c mice (about 20 grams) were subcutaneously inoculated with 5×10^5/mouse of M109 murine lung carinoma cells at the right flank on day 0. The mice were then randomly grouped and each group consisted of 8-10 mice. 3-AP was used with the Triapine™ formulation while all 3-AP prodrugs were either dissolved or suspended in sterile deionized water. The body weight of mice and the tumor volume were measured twice weekly until the tumor in the control group became necrotic or at least one animal was dead in the control group.

[2] = In vivo PK of ortho phosphate bearing 3-AP prodrugs, single intravenous dose, beagle dog; settings: for V/F of 3-AP: 3-AP in dog after i.v. prodrug; for Cmax of 3-AP: equimolar doses (equivalent to 3 mg/kg of 3-AP)
Protocol: The pharmacokinetics of 3-AP prodrugs were characterized following administration of a single intravenous dose of 7.2-8.5 mg/kg of 3-AP phosphate prodrugs (equivalent to 3 mg/kg of 3-AP) to a beagle dog. The animal was dosed once with each prodrug weekly. After each dose, a washout period of at least 6 days was maintained before the next dose was administered. Concentrations of 3-AP (Triapine) and prodrug in serum were determined by HPLC and used to calculate various PK parameters. These PK parameters were compared to those of 3-AP from equimolar doses from a separate study. Mean serum drug concentration versus time data were analyzed by both compartmental and non-compartmental models. AUC, total body clearance (Cl), steady-state volume of distribution (Vd,ss), terminal half-life (T1/2), Cmax, Tmax were calculated for both 3-AP and the prodrugs.
Ortho-phosphate prodrug was shown previously to undergo rapid bioconversion to 3-AP when incubated in vitro with alkaline phosphatase. […] At no time have we been able to detect the presence of the intermediary phenol which is the expected cleavage product. […] The 4-chloro (16), 5-methoxy (9) and 5-fluoro (7) analogs were promising in this regard as reflected in their AUCs and half-lives.
Pharmacokinetic parameters of 3-AP itself following i.v. administration of equimolar doses of the prodrugs are presented in Table 3, below.

[3] = Solubility in aqueous solution; format: physicochemical
[4] = Rising dose pharmacokinetic and toxicokinetic study in dogs with clinical observations; format: in vivo; settings: dog, Triapine itself dosed at 3 mg/kg, separate study
Protocol: Initially, both prodrugs were studied at a single dose of 7.5-7.7 mg/kg (equivalent to 3 mg/kg of Triapine).
PK parameters of Triapine and the two prodrugs are presented in Tables 4 and 5 and are compared to those obtained, in a separate study, from administration of 3 mg/kg of Triapine (equivalent to approximately 7.5 mg/kg of prodrugs).
Serum prodrug peak concentrations and AUCs, on the other hand, were not linear with dose, and appeared to be saturated at the doses investigated. Serum concentration-time profiles of prodrugs and Triapine are presented in attached FIGS. 4 and 5. […] The sustained serum Triapine levels were presumably attributable to the high serum levels of prodrugs as well as their low total body clearance.
Treatment-related clinical observations were recorded for both dogs. […] These observations were not present on day 2. The only adverse clinical sign on day 2 was the absence of stool.
Treatment-related clinical observations were recorded for the female treated at 80 mg/kg. […] In addition, the dog was pale (pallor), diarrhea was noted, and had yellow mucous in the stool. All observations were noted on day 1 and the dog was recovered on day 2.

[5] = Pharmacokinetic Study in beagle dogs at 20-80 mg/kg; format: in vivo, beagle dogs (Canis familiaris); settings: 30 and 40 mg/kg level
Protocol: Drug levels were determined for the animals at the intervals which are indicated in attached FIGS. 12-15.

Human serum stability = format: in vitro ADME; settings: incubation in human serum
Protocol: Bioconversion of prodrugs to 3-AP catalyzed by alkaline phosphatase. The bioactivation of dimethyl para-prodrug and a subset of the ortho phosphate prodrugs was studied using 4.65×10^−5 unit of phosphatase enzyme solution (Type VII-SA, from Bovine Intestinal Mucose, Sigma). Upon incubation with phosphatase, all the prodrugs were converted cleanly to the parent drug 3-AP. Under these experimental conditions, there was no significant increase in the half-life (T1/2) of bioactivation of ortho phosphate prodrugs compared to that of unsubstituted ortho prodrug (Table 1, below). Human serum stability studies were conducted by incubating the prodrugs at 37° C. in human serum.

solid tumors = settings: phase 1, patients with solid tumors; cited from earlier work
M109 lung carinoma cells = assay: Efficacy of 3-AP prodrugs on M109 Lung Carcinoma in Balb/c Mice; format: in vivo; settings: M109-bearing Balb/c mice
From the text: Drug treatment was started on day 5 according to the above schedule. […] The drinking water was autoclaved before use.

[6] = 60QD mpk ip, day 3-7, 10-14, 17-21
[7] = 3-AP in dog serum after i.v. prodrug, equimolar doses
[8] = 3-AP in dog serum after i.v. prodrug
[9] = prodrug in dog serum, single i.v. dose 7.2-8.5 mg/kg
[10] = prodrug in dog serum, single i.v. dose 7.2-8.5 mg/kg (equivalent to 3 mg/kg of 3-AP)
[11] = prodrug in dog, single i.v. dose 7.2-8.5 mg/kg
[12] = 5.5 (bid) mpk ip, day 3-7, 10-14
[13] = 100QD mpk ip, day 3-7, 10-14, 17-21

Row | SMILES | BW Loss (%) [1, 6] | Inhibition (%) [1, 6] | Relative Activity [1, 6] | V/F of 3-AP ([2]; equimolar doses) | AUC of 3-AP [2, 7] | T1/2 of 3-AP [2, 7] | Cmax of 3-AP [2, 8] | AUC of prodrug [2, 9] | T1/2 of prodrug [2, 9] | Cmax of prodrug [2, 10] | Cl of prodrug [2, 11] | Vss of prodrug [2, 11] | other results
1 | NC(=S)N/N=C/c1ncccc1NC(=O)OCc1cc(Cl)cc(Cl)c1OP(=O)(O)O [3,5-Di-Cl-(12)] | 9.0% | 58% | <CTX | 3.99 L/kg | 163 µg·min/L | 0.9 h | 2.1 µg/mL | 6939 µg·min/L | 0.567 h | 140 µg/mL | 1.2 mL/min/kg | 0.08 L/kg | –
2 | NC(=S)N/N=C/c1ncccc1N [3-AP (1A)] | – | – | – | – | – | – | – | – | – | – | – | – | solubility in aqueous solution [3]: less than 0.1 mg/ml; BW Loss (%) [1, 12]: 8.09%; Inhibition (%) [1, 12]: 60%; Relative Activity [1, 12]: <CTX; Cmax ([4]; Table 5): 2.3 µg/mL; AUC of Triapine [4]: 124 mg·min/L; Cmax of Triapine [4]: 2.3 µg/mL; V/F of Triapine [4]: 3.57 L/kg; half life of 3-AP itself in the dog ([2]; 3-AP itself dosed, dog serum): ~1.5 h; toxicity to the animals [5]: toxic
3 | Cc1cccc(COC(=O)Nc2cccnc2/C=N/NC(N)=S)c1OP(=O)(O)O [3-CH3-(15)] | – | – | – | 5.18 L/kg | 998 µg·min/L | 7.8 h | 1.5 µg/mL | 66756 µg·min/L | 5.3 h | 147 µg/mL | 0.11 mL/min/kg | 0.08 L/kg | BW Loss (%) ([1]; 60QD mpk ip, day 3-7, 10-14): 7.9%; Inhibition (%) ([1]; 60QD mpk ip, day 3-7, 10-14): 64%; Relative Activity ([1]; 60QD mpk ip, day 3-7, 10-14): <CTX; Tmax of 3-AP [2, 7]: 7.8 min
4 | NC(=S)N/N=C/c1ncccc1NC(=O)OCc1cc(Cl)c(Cl)cc1OP(=O)(O)O [4,5-Di-Cl-(13)] | 10.0% | 57% | <CTX | 3.14 L/kg | 392 µg·min/L | 1.7 h | 2.7 µg/mL | 21499 µg·min/L | – | 220 µg/mL | – | – | –
5 | COc1ccc(COC(=O)Nc2cccnc2/C=N/NC(N)=S)c(OP(=O)(O)O)c1 [4-CH3O (17)] | – | – | – | – | – | – | – | – | – | – | – | – | Half-life, Human Serum 37° C. (Human serum stability): 13.3 h
6 | NC(=S)N/N=C/c1ncccc1NC(=O)OCc1c(OP(=O)(O)O)ccc(Cl)c1Cl [5,6-Di-Cl-(14)] | 7.0% | 59% | <CTX | 2.32 L/kg | – | 1.6 h | 3.6 µg/mL | 34211 µg·min/L | – | 202 µg/mL | – | – | –
7 | NC(=S)N/N=C/c1ncccc1NC(=O)OCc1cc(C(F)(F)F)ccc1OP(=O)(O)O [5-CF3-(11)] | – | – | – | 2.74 L/kg | 280 µg·min/L | 1.1 h | 3.0 µg/mL | 9579 µg·min/L | 0.717 h | 156 µg/mL | 0.86 mL/min/kg | 0.08 L/kg | BW Loss (%) [1, 13]: 9.1%; Inhibition (%) [1, 13]: 77%; Relative Activity [1, 13]: <CTX
8 | NC(=S)N/N=C/c1ccc(O)cn1 [5-HP] | – | – | – | – | – | – | – | – | – | – | – | – | activity in patients (solid tumors): inactive
9 | NC(=S)N/N=C/c1ncccc1NC(=O)OCc1cc([N+](=O)[O-])ccc1OP(=O)(O)O [5-NO2-(8)] | 9.7% | 33% | <<CTX | 4.27 L/kg | 84 µg·min/L | 0.5 h | 1.9 µg/mL | 3396 µg·min/L | 0.317 h | 126 µg/mL | 2.33 mL/min/kg | 0.12 L/kg | –
10 | NC(=S)N/N=C/c1ncccc1NC(=O)OCc1ccccc1OP(=O)(O)O [Ortho- (3), reference compound] | – | – | – | – | 698 µg·min/L | – | – | 63309 µg·min/L | – | – | – | – | BW Loss (%) ([1]; 48QD mpk ip, day 5-9, 12-16): 12.6%; Inhibition (%) ([1]; 48QD mpk ip, day 5-9, 12-16): 70%; Relative Activity ([1]; 48QD mpk ip, day 5-9, 12-16): <CTX; activity versus cytoxan ([1]; M-109 solid tumor bearing mice): comparable activity to that of cytoxan; efficacy and toxicity versus parent 3-AP ([1]; M-109 solid tumor bearing mice): better efficacy with reduced toxicity than the parent 3-AP; efficacy on M109 lung carcinoma compared with the 3-AP parent drug at the MTD ([1]; mice): better efficacy; reason treatment was stopped before the end of the experiment (M109 lung carinoma cells): severe toxic reactions or mortality of the mice; Cmax ([2]; beagle, iv, prodrug in dog serum, single i.v. dose 7.2-8.5 mg/kg (equivalent to 3 mg/kg of 3-AP)): 125 µg/mL; half-life ([2]; beagle, iv, prodrug in dog serum, single i.v. dose 7.2-8.5 mg/kg, read-out: T1/2 of prodrug (converted)): 5.9 h; clearance ([2]; beagle, serum, iv, prodrug in dog, single i.v. dose 7.2-8.5 mg/kg, read-out: Cl of prodrug): 0.11 mL/min/kg; Vd ([2]; beagle, serum, iv, prodrug in dog, single i.v. dose 7.2-8.5 mg/kg, read-out: Vss of prodrug): 0.14 L/kg; toxicity to the animals [5]: toxic
11 | N/C(S)=N/N=C/c1ncccc1NC(=O)OCc1ccc(OP(=O)(O)O)cc1 [Para- (2), reference compound] | – | – | – | – | 74.5 µg·min/L | – | – | – | – | – | – | – | –
